One assay concerns fecal trypsin. The assay can be described thus: Method 2a: Efficacy of Protease Inhibitors in Fecal Trypsin. In kind it is biochemical. The settings on record: pooled infant fecal suspension; 25° C., 405 nm corrected by 490 nm. The method, then:
(§1) Standard in vitro assays for determining enzyme activity, and inhibition of enzyme activity, are well known. The reagents used to conduct these tests are generally commercially available. In general, a simple system comprises an enzyme-specific substrate which, when hydrolyzed by the enzyme, produces a colored product. The activity of the enzyme is measured spectrophotometrically as the degree of development of the colored product (i.e.; the rate of color change) over a predetermined time period.
(§2) The inhibitory activity of an enzyme inhibitor may be calculated according to the following equation: […]
(§3) In the methods, v and vi are measured as the change in absorbency (optical density, OD) at a given wavelength/time (e.g., minutes). […]
Serial dilutions of a protease inhibitor are made using distilled water. A 0.7 ml aliquot of each dilution of protease inhibitor to be evaluated is added to a microcuvette. […]
A volume of 0.1 mL of fecal suspension is added to the microcuvette and mixed. The absorbency of the mixture at 490 nm is measured with the spectrophotometer. […] The absorbency of the mixture at 405 nm is then measured with the spectrophotometer over a period of 5 minutes at 25° C. These […] in order to correct for any background interference. […]

Assay [1] relates to purified trypsin (human pancreatic trypsin). Kind of assay: Method 1a: Efficacy of Protease Inhibitors in Purified Trypsin. In kind it is biochemical. The settings on record: 25° C., 405 nm; inhibitor diluted in distilled water. The procedure: as §1, §2, §3
Serial dilutions of a protease inhibitor are made using distilled water. A 50 μl aliquot of each serial dilution of protease inhibitor to be evaluated is added to a microcuvette containing 0.020 ml of trypsin buffer and 0.105 ml of purified trypsin. […]
After incubating, 0.025 ml of the 4 mM N-carbobenzyloxy-arginine-p-nitroanilide substrate solution is added to the microcuvette. […] The absorbency of the mixture is then measured at a wavelength of 405 nm over a period of 10 minutes at a temperature of 25° C. […]

The test system of another assay is Escherichia coli. Kind of assay: Method 3: antimicrobial activity (NCCLS dilution, MIC), E. coli. To be noted: ATCC25922, ATCC 25922, diluted with distilled water, 24 hours at 37° C., read-out: Minimal Inhibitory Concentration. In kind it is cell-based. The procedure: (§4) 3. Method for Determining the Activity of Antimicrobial Agents:
(§5) This method is used to determine the antimicrobial activity of antimicrobial agents. The antimicrobial activity of an antimicrobial agent is tested according to the National Committee for Clinical Laboratory Standards ("NCCLS") Methods. The NCCLS Dilution Antimicrobial Susceptibility Test for Bacteria Which Grow Aerobically is used (i.e.; NCCLS Document M7-A2, 1990).
(§6) Serial two-fold dilutions of the antimicrobial agent are made in trypticase soy broth in a microtiter plate (in the case of hexamidine diisethionate a 1000 μM starting concentration is recommended). Microorganism inocula are prepared by harvesting colonies from agar plates into saline and adjusting the optical density of the solution to be equivalent to the 0.5 McFarland standard. Each microorganism suspension is diluted 1:10 and 10 microliters of the suspension added to each microtiter well.
(§7) The microtiter plates are sealed and incubated for 24 hours at 37° C. The highest dilution of the antimicrobial agent preventing growth is recorded as the minimal inhibitory concentration ("MIC").
(§8) Referring to Table II, the antimicrobial activity of hexamidine diisethionate on three different microorganisms is shown. For purposes of this example, hexamidine diisethionate was diluted with distilled water and evaluated according to Method 3 above. […]

The subject of the next assay is Staphylococcus aureus. The assay can be described thus: Method 3: antimicrobial activity (NCCLS dilution, MIC), S. aureus. Format: cell-based, Staphylococcus aureus ATCC 25923. To be noted: ATCC25923, ATCC 25923, diluted with distilled water, 24 hours at 37° C., read-out: Minimal Inhibitory Concentration. The procedure:
as §4, §5, §6, §7, §8

Another assay concerns Candida albicans. The assay can be described thus: Method 3: antimicrobial activity (NCCLS dilution, MIC), C. albicans. Format: cell-based, Candida albicans ATCC 10231. To be noted: ATCC10231, ATCC 10231, diluted with distilled water, 24 hours at 37° C., read-out: Minimal Inhibitory Concentration. The method, then:
as §4, §5, §6, §7, §8

As for `N=C(N)c1ccc(OCCCCCCOc2ccc(C(=N)N)cc2)cc1` [hexamidine diisethionate], the IC50 in the assay on fecal trypsin came to 2300 nM; in assay [1], 2500 nM. Also, the MIC came out at 53 µM with Escherichia coli, 3 µM in the assay with Staphylococcus aureus and 13 µM in the assay on Candida albicans.

Source of the values: patent US6207596A, “Disposable premoistened wipe containing an antimicrobial protease inhibitor” (The Procter & Gamble Company, priority 1998, dated 2001).
